Data: patent US20180306819A1, “ANTI-PLATELET RESPONSE AND REACTIVITY TEST USING SYNTHETIC COLLAGEN” (JNC CORPORATION, priority 2012, published 2018)

Test system: normal human platelet rich plasma
Assay: Agonist-induced platelet aggregation in platelet rich plasma, PAP 8E aggregometer
Type: cell-based
Settings: non-aspirinized plasma; for effect on ADP-induced aggregation: ADP 10 μM; for effect on Bio/Data collagen-induced aggregation: Bio/Data collagen 190 μg/mL; for effect on Chrono Log collagen-induced aggregation: Chrono Log collagen 10 μg/mL; for effect on arachidonic acid-induced aggregation: arachidonic acid 500 μg/mL; for effect on aggregation induced by lower concentrations of synthetic collagen: synthetic collagen 32 ng/mL and lower (32, 16, 8 ng/mL); for effect on aggregation induced by 64 ng/mL synthetic collagen: synthetic collagen 64 ng/mL
Method: ADP was obtained from Bio/Data Corporation, Horsham, Pa. Each vial was reconstituted with 1 mL of deionized water to make a 100 μM working solution. The final concentration of ADP in the aggregation cuvette was 10 μM.
Arachidonic acid was obtained from Bio/Data Corporation, Horsham, Pa. Each vial was reconstituted with 0.5 mL deionized water to make a 5 mg/mL working solution. The final concentration of arachidonic acid in the aggregation cuvette was 500 μg/mL.
Collagen was obtained from Bio/Data Corporation, Horsham, Pa. Each vial was reconstituted with 0.5 mL deionized water to make a 1.9 mg/mL working solution. The final concentration of Bio/Data collagen in the aggregation cuvette was 190 μg/mL.
Collagen was obtained from Chrono Log Corporation, Havertown, Pa. as a 1 mg/mL solution. A working solution of 100 μg/mL was made by dilution with physiologic saline. The final concentration of Chrono Log collagen in the aggregation cuvette was 10 μg/mL.
Synthetic collagen was provided by JNC Corporation, Yokohama, Japan at working concentrations of 80, 160, 320 and 640 ng/mL. The final concentrations of synthetic collagen in the aggregation cuvette were 64, 32, 16 and 8 ng/mL.
Approval for the collection of whole blood from healthy human volunteers was granted from the Institutional Review Board of the Health Sciences Division of Loyola University Chicago. Whole blood was drawn using a double syringe technique from the antecubital vein and anticoagulated by the addition of 1 part 3.2% sodium citrate to (9 parts blood to 1 part citrate). Citrated blood was centrifuged at 80×g at room temperature for 15 minutes to make platelet rich plasma (PRP). Supernatant PRP was collected and kept at room temperature in capped tubes. The remaining citrated blood was recentrifuged at 1,100×g for 15 minutes to make platelet poor plasma (PPP). The platelet count of the PRP was determined using an ICHOR II Analyzer, Helena Laboratories, Beaumont, Tex. Platelet count in the PRP was adjusted to 250,000-300,000/μl by the addition of homologous PPP.
Platelet aggregation was measured using a PAP 8E platelet aggregometer (Bio/Data). Each well was blanked using PPP. 25 μl of saline or antiplatelet drug and 200 μl of PRP were added to cuvettes containing magnetic stir bars and incubated for three minutes to equilibrate the sample to 37° C. 25 μl of agonist was added to each cuvette and the aggregation profile was monitored until a plateau was achieved. Results were tabulated in terms of maximal aggregation level. Under some reaction conditions, reversible aggregation was observed. This was most commonly observed with ADP and arachidonic acid-induced aggregation in the presence of ticagrelor or cilostazol. Final aggregation levels were also tabulated.

O=C1CCc2cc(OCCCCc3nnnn3C3CCCCC3)ccc2N1 [cilostazol, Cilostazol]
inhibition at 25 µM (Homo sapiens, Platelet, drug at 25 μM, read-out: inhibition of ADP-induced aggregation): ~30%
effect on ADP-induced aggregation: minimally affected
effect on ADP-induced aggregation (listed as Cilostazol): weaker, concentration-dependent inhibition
effect on Bio/Data collagen-induced aggregation: did not inhibit aggregation
effect on Chrono Log collagen-induced aggregation: did not inhibit aggregation
effect on arachidonic acid-induced aggregation: strongly inhibited
arachidonic acid-induced aggregation level (drug at concentrations ≥12.5 μM, 95% in the absence of drug): ~20%
effect on aggregation induced by lower concentrations of synthetic collagen: the anti-platelet effect of higher concentrations of cilostazol could be observed
effect on aggregation induced by 64 ng/mL synthetic collagen: did not inhibit aggregation

CCCSc1nc(N[C@@H]2C[C@H]2c2ccc(F)c(F)c2)c2nnn([C@@H]3C[C@H](OCCO)[C@@H](O)[C@H]3O)c2n1 [ticagrelor, (1S,2S,3R,5S)-3-[7-[[(1R,2S)-2-(3,4-difluorophenyl)cyclopropyl]amino]-5-propylsulfanyltriazolo[4,5-d]pyrimidin-3-yl]-5-(2-hydroxyethoxy)cyclopentane-1,2-diol]
effect on ADP-induced aggregation: strongly inhibited
effect on Bio/Data collagen-induced aggregation: Neither Bio/Data collagen, Chrono Log collagen nor 64 ng/mL synthetic collagen was markedly impacted
effect on Chrono Log collagen-induced aggregation: Neither Bio/Data collagen, Chrono Log collagen nor 64 ng/mL synthetic collagen was markedly impacted
effect on arachidonic acid-induced aggregation: inhibited to a similar extent
effect on aggregation induced by lower concentrations of synthetic collagen: antiplatelet effects of Ticagrelor® could be identified
effect on aggregation induced by 64 ng/mL synthetic collagen: Neither Bio/Data collagen, Chrono Log collagen nor 64 ng/mL synthetic collagen was markedly impacted

B1: abciximab: Fab Fragment Chimeric monoclonal antibody 7E3 (GP IIbIIIa receptor blocker) (antibody, chains of the INN, looked up, V domains shown)
VH: EVQLQQSGTVLARPGASVKMSCEASGYTFTNYWMHWVKQRPGQGLEWIGAIYPGNSDTSYIQKFKGKAKLTAVTSTTSVYMELSSLTNEDSAVYYCTLYDGYYVFAYWGQGTLVTVSA
VL: EIVLTQSPVTLSVTPGDSVSLSCRASRDISNNLHWFQQTSHESPRLLIKYASQSMSGIPSRFSGSGSGTDFTLSINSVETEDFGMYFCQQTNSWPYTFGGGTKLEIK
modifications: Fab
effect on ADP-induced aggregation: inhibited aggregation
effect on Bio/Data collagen-induced aggregation: only observed at the 5 μg/mL concentration
effect on Chrono Log collagen-induced aggregation: only observed at the 5 μg/mL concentration
effect on arachidonic acid-induced aggregation: most sensitive for detecting the presence of abciximab
inhibition of agonist-induced aggregation (all agonists) (concentration range 1.25-5 μg/mL, FIG. 11): concentration-dependent inhibition
effect on aggregation induced by lower concentrations of synthetic collagen: most sensitive for detecting the presence of abciximab
effect on aggregation induced by 64 ng/mL synthetic collagen: inhibited by abciximab to a comparable degree
